Data from ChEMBL document CHEMBL3227967, “Quantitative structure-activity relationships in 1-aryl-2-(alkylamino)ethanol antimalarials” (J Med Chem, 1979).

System: Plasmodium berghei
Experiment: Antimalarial activity against Plasmodium berghei
Format: functional

In the case of `CCCCN(CCCC)CC(O)c1cc2ccsc2c2cc(C(F)(F)F)ccc12` (stereo unspecified), the “log(1/C)” value is reported as 3.5.
`CCCN(CCC)CC(O)c1cc2ccc(C(F)(F)F)cc2c2cc(C(F)(F)F)ccc12` (stereo unspecified) was tested, and the “log(1/C)” value was 3.92.
`OC(CC1CCCCN1)c1cc2cc(C(F)(F)F)cc(C(F)(F)F)c2c2cc(C(F)(F)F)ccc12` (stereo unspecified) was tested, and the “log(1/C)” value was 4.47.
In the case of `CCCCN(CCCC)CC(O)c1c(C)c(-c2ccc(Cl)cc2Cl)nc2c(Cl)cc(Cl)cc12` (stereo unspecified), the “log(1/C)” value is reported as 3.15.
`CCCCCCCN(CCCCCCC)CC(O)c1c(Br)c2ccccc2c2cc(Br)ccc12` (stereo unspecified) was tested, and the “log(1/C)” value was 3.42.
In the case of `OC(CCC1CCCCN1)c1cc(C(F)(F)F)nc2c(C(F)(F)F)cccc12` (stereo unspecified), the “log(1/C)” value is reported as 3.36.
With `CCCCCCN(CCCCCC)CC(O)c1cccc2ccc3cccc(Br)c3c12` (stereo unspecified) the “log(1/C)” value was 2.39.
For `CCCCN(CCCC)CC(O)c1cc(-c2ccc(C(F)(F)F)cc2)nc(-c2ccc(C(F)(F)F)cc2)c1.O=C(O)CCC(=O)O` (stereo unspecified), the “log(1/C)” value was 4.23.
For `CCCCN(CCCC)CC(O)c1cc(-c2ccc(OC)cc2)nc2cc(Cl)c(Cl)cc12` (stereo unspecified), the “log(1/C)” value was 3.63.
With `CCCCN(CCCC)CC(O)c1cc(Cl)cc2c1-c1ccc(Cl)cc1C2` (stereo unspecified) the “log(1/C)” value was 3.97.
`CCCCN(CCCC)CC(O)c1cccc2c1cc(Cl)c1ccccc12` (stereo unspecified) was tested, and the “log(1/C)” value was 2.26.
In the case of `OC(CC1CCCCN1)c1cc2ccc(C(F)(F)F)cc2c2cc(C(F)(F)F)ccc12` (stereo unspecified), the “log(1/C)” value is reported as 3.99.
With `COc1ccc(-c2cc(C(O)CC3CCCCN3)c3cccc(C)c3n2)cc1` (stereo unspecified) the “log(1/C)” value was 3.18.
In the case of `CCCCN(CCCC)CC(O)c1cc(Cc2ccccc2)nc2c(Cl)cc(Cl)cc12` (stereo unspecified), the “log(1/C)” value is reported as 2.6.
With `OC(CC1CCCCN1)c1cc2ccc(C(F)(F)F)cc2c2cc(Br)ccc12` (stereo unspecified) the “log(1/C)” value was 3.86.
With `CC[C@H]1CN2CC[C@H]1C[C@H]2[C@H](O)c1ccnc2ccc(OC)cc12` [HYDROQUININE] the “log(1/C)” value was 2.04.
With `CCCN(CCC)CC(O)c1cc2ccc(Cl)c(Cl)c2c2cc(C(F)(F)F)ccc12` (stereo unspecified) the “log(1/C)” value was 4.03.
`CCCCN(CCCC)CC(O)c1cc(-c2cccc(C(F)(F)F)c2)nc(-c2ccc(Cl)c(Cl)c2)c1` (stereo unspecified) was tested, and the “log(1/C)” value was 2.9.
In the case of `CCN(CC)CC(O)c1cc(-c2ccc(OC)c(OC)c2)nc2ccc(Cl)cc12` (stereo unspecified), the “log(1/C)” value is reported as 3.12.
In the case of `CCCCN(CCCC)CC(O)c1cc2cc(Cl)ccc2c2cc(C(F)(F)F)ccc12` (stereo unspecified), the “log(1/C)” value is reported as 3.69.
`CCCCN(CCCC)CC(O)c1cc2cc(Cl)cc(Cl)c2c2cc(SC)ccc12` (stereo unspecified) was tested, and the “log(1/C)” value was 3.88.
`CCCCCCN(CCCCCC)CC(O)c1cc(-c2ccc(Cl)cc2)nc2c(C)c(Cl)ccc12` (stereo unspecified) was tested, and the “log(1/C)” value was 3.85.
For `CCCCN(CCCC)CC(O)c1cc(/C=C/c2ccc(C(F)(F)F)cc2)nc(C(=O)c2ccc(C(F)(F)F)cc2)c1` (stereo unspecified), the “log(1/C)” value was 3.91.
`OC(CC1CCCCN1)c1cc2cc(C(F)(F)F)cc(C(F)(F)F)c2c2cc(Cl)ccc12` (stereo unspecified) was tested, and the “log(1/C)” value was 4.72.
For `CCCCCCCN(CCCCCCC)CC(O)c1cccc2c1c(Br)cc1ccccc12` (stereo unspecified), the “log(1/C)” value was 2.27.
`OC(CC1CCCCN1)c1cc2cc(Cl)ccc2c2c(Cl)cc(Cl)cc12` (stereo unspecified) was tested, and the “log(1/C)” value was 4.29.
For `CCCCCCCN(CCCCCCC)CC(O)c1cccc2cc3ccccc3cc12` (stereo unspecified), the “log(1/C)” value was 2.99.
With `OC(CC1CCCCN1)c1cc2cc(C(F)(F)F)cc(C(F)(F)F)c2c2cc(Cl)c(Cl)cc12` (stereo unspecified) the “log(1/C)” value was 4.47.
For `CC1CCCNC1CC(O)c1cc(-c2ccccc2)nc2cc(Cl)ccc12` (stereo unspecified), the “log(1/C)” value was 3.52.
For `OC(CC1CCCCN1)c1cc2ccc(C(F)(F)F)cc2c2cc(Cl)ccc12` (stereo unspecified), the “log(1/C)” value was 4.25.
`CCCCN(CCCC)CC(O)c1cc(C(=O)c2cccc(Cl)c2Cl)nc2c(C(F)(F)F)cc(Cl)cc12` (stereo unspecified) was tested, and the “log(1/C)” value was 4.52.
In the case of `CCC(C)NCC(O)c1cc(-c2ccc(Cl)cc2)nc(-c2ccc(Cl)cc2)c1` (stereo unspecified), the “log(1/C)” value is reported as 4.09.
`CCCCN(CCCC)CC(O)c1c(Cl)cc(Cl)c2nc(-c3ccc(Cl)cc3)ccc12` (stereo unspecified) was tested, and the “log(1/C)” value was 3.6.
For `CCCCN(CCCC)CC(O)c1cc2c(Cl)cc(Cl)cc2c2cc(Cl)ccc12` (stereo unspecified), the “log(1/C)” value was 3.72.
With `CCCN(CCC)CC(O)c1cc2cc(C(F)(F)F)cc(C(F)(F)F)c2c2cc(Cl)c(Cl)cc12` (stereo unspecified) the “log(1/C)” value was 5.18.
For `CCCCN(CCCC)CC(O)c1c(C)cnc2c1cc(Cl)c1ccccc12` (stereo unspecified), the “log(1/C)” value was 2.38.
`OC(CC1CCCCN1)c1ccnc2c(Cl)cccc12` (stereo unspecified) was tested, and the “log(1/C)” value was 2.01.
In the case of `CCCCCCN(CCCCCC)CC(O)c1cc(-c2ccc(Cl)cc2)nc2c(Cl)cccc12` (stereo unspecified), the “log(1/C)” value is reported as 3.32.
In the case of `CCCCCCCN(CCCCCCC)CC(O)c1cc2ccc(Cl)cc2c2ncccc12` (stereo unspecified), the “log(1/C)” value is reported as 2.48.
With `CCC(CC)NCC(O)c1cc(-c2ccc(C(F)(F)F)cc2)nc(C(F)(F)F)c1` (stereo unspecified) the “log(1/C)” value was 3.28.
In the case of `CC(C)(C)NCCC(O)c1cc2ccc(C(F)(F)F)cc2c2cc(C(F)(F)F)ccc12` (stereo unspecified), the “log(1/C)” value is reported as 4.73.
In the case of `CCCCN(CCCC)CC(O)c1ccnc2c1cnc1cc(Cl)ccc12` (stereo unspecified), the “log(1/C)” value is reported as 2.11.
In the case of `CCCCN(CCCC)CC(O)c1cc(-c2ccc(OC)cc2)nc(-c2ccc(OC)cc2)c1` (stereo unspecified), the “log(1/C)” value is reported as 2.17.
With `OC(CNC1CCCCC1)c1cc(-c2ccc(C(F)(F)F)cc2)nc(-c2ccc(C(F)(F)F)cc2)c1` (stereo unspecified) the “log(1/C)” value was 4.17.
In the case of `CCCCCCN(CCCCCC)CC(O)c1cc(-c2ccc(OC)c(OC)c2)nc2ccc(Cl)cc12` (stereo unspecified), the “log(1/C)” value is reported as 3.32.
For `OC(CC1CCCCN1)c1cc2ccc(C(F)(F)F)cc2c2ccccc12` (stereo unspecified), the “log(1/C)” value was 3.43.
`CCCCN(CCCC)CC(O)c1ccc2ccc3cccc(C(F)(F)F)c3c2c1` (stereo unspecified) was tested, and the “log(1/C)” value was 2.23.
In the case of `C=C[C@H]1CN2CC[C@H]1C[C@H]2[C@H](O)c1ccnc2ccc(OC)cc12.O=C(O)CCC(=O)O`, the “log(1/C)” value is reported as 2.28.
In the case of `CCCCCCCN(CCCCCCC)CC(O)c1cccc2ccc3ccccc3c12` (stereo unspecified), the “log(1/C)” value is reported as 2.19.
With `OC(CC1CCCCN1)c1cc2cc(C(F)(F)F)ccc2c2ccccc12` (stereo unspecified) the “log(1/C)” value was 4.39.
With `OC(CC1CCCCN1)c1cc(-c2ccccc2)nc2c1ccc1ccccc12` (stereo unspecified) the “log(1/C)” value was 3.05.
For `CCN(CC)CC(O)c1cc(-c2ccc(Cl)cc2)cc2ccccc12` (stereo unspecified), the “log(1/C)” value was 3.51.
`CCN(CC)CC(O)c1cc(-c2ccc(C)cc2)nc2c(C)cc(C)cc12` (stereo unspecified) was tested, and the “log(1/C)” value was 2.8.
In the case of `OC(CNC12CC3CC(CC(C3)C1)C2)c1cc(-c2ccc(Cl)cc2)nc2cc(Cl)ccc12` (stereo unspecified), the “log(1/C)” value is reported as 3.24.
For `CCCCNCC(O)c1cc(-c2ccc(C(F)(F)F)cc2)nc(C(F)(F)F)c1` (stereo unspecified), the “log(1/C)” value was 4.08.
In the case of `Cc1cc(C)c2nc(C(F)(F)F)cc(C(O)CC3CCCCN3)c2c1` (stereo unspecified), the “log(1/C)” value is reported as 2.93.
For `OC(CN1CCN(c2ccccc2)CC1)c1cc(-c2ccccc2)nc2c(Cl)cc(Cl)cc12` (stereo unspecified), the “log(1/C)” value was 2.66.
With `CCCCN(CCCC)CC(O)c1cc2ccc(Br)cc2c2ccsc12` (stereo unspecified) the “log(1/C)” value was 2.57.
In the case of `CCCCCCCN(CCCCCCC)CC(O)c1cc2ccccc2c2ccc3ccccc3c12` (stereo unspecified), the “log(1/C)” value is reported as 3.25.
With `Cc1cc(C)c2nc(-c3ccc(Cl)cc3)cc(C(O)CC3CCCCN3)c2c1` (stereo unspecified) the “log(1/C)” value was 4.04.
For `CCCCCCN(CCCCCC)CC(O)c1cc(-c2ccc(OC)cc2)nc2cc(OC)c(Cl)cc12` (stereo unspecified), the “log(1/C)” value was 2.64.
`CCN(CC)CC(O)c1cc(-c2ccccc2)nc2ccc(OC)cc12` (stereo unspecified) was tested, and the “log(1/C)” value was 2.44.
`CCCCCCCN(CCCCCCC)CC(O)c1cc(-c2ccc(Cl)cc2)nc(-c2ccc(Cl)cc2)c1` (stereo unspecified) was tested, and the “log(1/C)” value was 2.67.
`CCCCCCCCN(CCCCCCCC)CC(O)c1cc(-c2ccc(OC)c(OC)c2)nc2ccc(Cl)cc12` (stereo unspecified) was tested, and the “log(1/C)” value was 3.11.
In the case of `CCCCN(CCCC)CC(O)c1cccc2c1cc(Br)c1ccccc12` (stereo unspecified), the “log(1/C)” value is reported as 2.15.
For `CCCCN(CCCC)CC(O)c1cc(-c2ccc(Cl)cc2)nc2cc(I)ccc12` (stereo unspecified), the “log(1/C)” value was 3.43.
`OC(CC1CCCCN1)c1cc(-c2ccc(F)cc2)nc2cc(F)ccc12` (stereo unspecified) was tested, and the “log(1/C)” value was 2.32.
In the case of `CCCCCCCN(CCCCCCC)CCCC(O)c1cc2ccc(C(F)(F)F)cc2c2cc(C(F)(F)F)ccc12` (stereo unspecified), the “log(1/C)” value is reported as 3.72.
`CCCCCN(CCCCC)CC(O)c1ccc(Br)c2ccccc12` (stereo unspecified) was tested, and the “log(1/C)” value was 2.16.
With `CCCN(CCC)CC(O)c1cc2c(Cl)cc(Cl)cc2c2cc(Cl)ccc12` (stereo unspecified) the “log(1/C)” value was 4.19.
`CCCCCCCN(CCCCCCC)CC(O)c1cc2ccc(Cl)cc2c2cc(Cl)ccc12` (stereo unspecified) was tested, and the “log(1/C)” value was 3.12.
For `CCCN(CCC)CC(O)c1cc2cc(Br)cc(Br)c2c2cc(C(F)(F)F)ccc12` (stereo unspecified), the “log(1/C)” value was 4.24.
`CCN(CC)CCC(O)c1cc2ccc(C(F)(F)F)cc2c2cc(C(F)(F)F)ccc12` (stereo unspecified) was tested, and the “log(1/C)” value was 4.12.
`OC(CC1CCCCN1)c1cc2c(Cl)cc(Cl)cc2c2cc(C(F)(F)F)ccc12` (stereo unspecified) was tested, and the “log(1/C)” value was 4.1.
For `OC(CC1CCCCN1)c1cc2ccccc2c2c(Cl)cc(Cl)cc12` (stereo unspecified), the “log(1/C)” value was 3.52.
`CCCCCCCN(CCCCCCC)CC(O)c1cc2cccnc2c2ccccc12` (stereo unspecified) was tested, and the “log(1/C)” value was 2.9.
For `CCCCNCC(O)c1cc(-c2ccc(Cl)cc2)nc(-c2ccc(Cl)cc2)c1` (stereo unspecified), the “log(1/C)” value was 3.56.
With `CCCCN(CCCC)CC(O)c1cc(C(=O)c2cc(C(F)(F)F)cc(C(F)(F)F)c2)nc2c(Cl)cc(Cl)cc12` (stereo unspecified) the “log(1/C)” value was 4.64.
In the case of `OC(CC1CCCCN1)c1cc2cccc(C(F)(F)F)c2c2ccccc12` (stereo unspecified), the “log(1/C)” value is reported as 3.62.
For `CCCCCCNCC(O)c1cc(-c2ccc(C(F)(F)F)cc2)nc(-c2ccc(C(F)(F)F)cc2)c1` (stereo unspecified), the “log(1/C)” value was 3.96.
`OC(CC1CCCCN1)c1cc2c(Cl)c(Cl)c(Cl)c(Cl)c2c2cc(C(F)(F)F)ccc12` (stereo unspecified) was tested, and the “log(1/C)” value was 4.75.
For `CCCCN(CCCC)CC(O)c1cc(-c2ccc(I)cc2)nc2ccc(I)cc12` (stereo unspecified), the “log(1/C)” value was 4.22.
For `CCCCCCCN(CCCCCCC)CC(O)c1cccc2cc3c(Cl)cccc3cc12` (stereo unspecified), the “log(1/C)” value was 2.44.
With `CCCC(C)NCC(O)c1cc(-c2ccc(C(F)(F)F)cc2)nc(-c2ccc(C(F)(F)F)cc2)c1` (stereo unspecified) the “log(1/C)” value was 4.44.
`OC(CC1CCCCN1)c1cc(-c2ccc(Cl)cc2)nc2c(Cl)cc(Cl)cc12` (stereo unspecified) was tested, and the “log(1/C)” value was 3.97.
In the case of `CCCCCCCN(CCCCCCC)CC(O)c1cc2ccc(Br)cc2c2cc(Br)ccc12` (stereo unspecified), the “log(1/C)” value is reported as 3.45.
